# According to patent publication US7321027B2, “Small technetium-99m and rhenium labeled agents and methods for imaging tumors” (President and Fellows of Harvard College, priority 2000, dated 2008):
# Legend:
# [1] = tested on: B16/F0 murine melanoma; assay: In-vivo tumor uptake and biodistribution; set-up: species or system C57B16 mice; details: mouse, in vivo
# Procedure: In-Vivo Tumor Uptake. To study the tumor uptake of ^99mTc-complexes, Tc-(Compound A-D and J-K), in vivo, biodistribution experiments at 1 h and 6 h after their administration were carried out in C57B16 mice with palpable B16 melanoma nodules. The biodistribution data including melanoma/nontumor (M/NT) ratios for selected organs are summarized in Table 4 and 5 as percentage injected dose per gram ([…]).
# Animal Studies. All animal experiments were performed in compliance with the Principles of Laboratory Animal Care (NIH publication #85-23, revised 1985). Biodistribution studies and tumor-uptake measurements were performed in C57B16 mice (15 to 20 g) bearing the B16/F0 murine melanoma on the hind limb. See for example the studies described in, which are hereby incorporated by reference, Brandau, W.; Niehoff, T.; Pulawski, P.; Jonas, M.; Dutschka, K.; Sciuk, J.; Coenen, H. H.; Schober, O. Structure Distribution Relationship of Iodine-123-Iodobenzamides as Tracers for the Detection of Melanotic Melanoma. J. Nucl. Med. 1996, 37, 1865-1871; Mohanmmed, A.; Nicholl, C.; Titsch, U.; Eisenhut, M. Radiojodinated N-(Alkylaminoalkyl)-Substituted 4-Methoxy-, 4-Hydroxy-, and 4-Aminobenzamides: Biological Investigations for the Improvement of Melanoma-Imaging Agents. Nucl. Med. Biol. 1997, 24, 373-380; Titsch, U.; Mohammed, A.; Wagner, S.; Oberdorfer, F.; Eisenhut, M. Syntheses of N-(2-Diethylaminoethyl)benzamides Suitable for ^99mTc Complexation. J. Labelled Compd. Radiopharm. 1997, 40, 416-418; Dittmann, H.; Coenen, H. H.; Zölzer, F.; Dutschka, K.; Brandau, W.; Streffer, C. In Vitro Studies on the Cellular Uptake of Melanoma Imaging Aminoalkyl-iodobenzamide Derivatives (ABA). Nucl. Med. Biol. 1999, 26, 51-56; and Michelot, J. M.; Moreau, M. F. C.; Veyre, A. J.; Bonafous, J. F.; Bacin, F. J.; Madelmont, J. C.; Bussiere, F.; Souteyrand, P. A.; Mauclaire, L. P.; Chossat, F. M.; Papon, J. M.; Labarre, P. G.; Kauffmann, Ph.; Plagne, R. J. Phase II Scintigraphic Clinical Trial of Malignant Melanoma and Metastases with Iodine-123-N-(2-Diethylaminoethyl 4-Iodobenzamide). J. Nucl. Med. 1993, 34, 1260-1266. The tumor cells (B16/F0), obtained from ATCC, were washed with PBS and transplanted subcutaneously on the left hind flank by an inoculation of 0.5×10^6 cells (0.1 mL). Ten to 14 days later the animals developed palpable tumor nodules 3 to 5 mm in diameter. The biodistribution studies were carried out by tail-vein injection of 25 to 30 μCi (0.05 to 0.1 mL) of the ^99mTc-labeled complexes Tc-(Compound A-D, H, J, K or M). At the designated time after tail-vein administration, the animals were weighed and sacrificed. The organs and tumors were harvested and, when appropriate, blotted dry, weighed, and counted in a gamma counter along with technetium-99m standards of the injected dose. The results are expressed as % ID/g tissue (Table 4 and 5)
# [2] = tested on: MCF-7 human breast cancer cell line; assay: In-vitro tumor-cell uptake, breast cancer cells; type: cell-based; details: 37° C., MCF-7 cell line
# Procedure: In-Vitro Tumor-Uptake Studies. Tumor-cell uptake studies in B16/F0 murine melanoma cells were performed with complexes Tc-(Compound A-D and H-M) at 37° C. and 4° C. Additionally, tumor-cell uptake of complex Tc-(Compound A) was investigated in another rapidly dividing MCF-7 human breast cancer cell line.
# In-Vitro Cell Studies. […] After being washed with 12 mL Dulbecco's Phosphate-Buffered Saline (PBS) (Gibco), pH 7.2 (Ca^2+- and Mg^2+-free; g/L KCl, 0.20; KH2PO4, 0.20; NaCl, 8.00; Na2HPO4, 1.15), the cells were counted and resuspended in 8 mL S-MEM (Gibco) (Ca^2+ free, with reduced Mg^2+ content) and stored at 4° C. until use.
# For in-vitro tumor-cell accumulation studies, 5×10^6 cells in polypropylene test tubes were incubated at 37° C. or 4° C., with intermittent agitation with 1-2 μCi (5 μL) ^99mTc-complex Tc-(Compound A-D) in a total volume of 350 μL S-MEM. […] Both fractions were counted for radioactivity in a γ-counter (WALLAC, 1480 WIZARD 3″™). The amount of supernatant in the cell pellet was determined to be <1% in separate experiments. The percentage cell uptake of the ^99mTc-complex was calculated as: % uptake=[cpm(pellet)]/[cpm(pellet)+cpm(supernatant)]×100
mel/lung ratio [1],Structure (SMILES),maximum cell uptake [2]
2.1,CCCCN(CCCC)CCN1CC[S][99Tc]2(=[O])[S]CC[N]2C(=O)C1 (centres unmarked) [Tc-(Compound B)],
,CCN(CC)CCN1CC[S][99Tc]2(=[O])[S]CC[N]2C(=O)C1 (centres unmarked) [Tc-(Compound A)],6%
